Values joined by “and” are separate entries in the source; they are usually repeats but may differ in a detail not shown here. Equal values may be shown once. Inconclusive results and toxic doses are left out. No stated cut-off is given here; in the data, active means T/C of 150% or more; inactive means T/C below 125%.
Test system: L1210 leukemia ip in BDF1 mice, survival T/C
Test: NCI In Vivo Anticancer Drug Screen. Data for tumor model L1210 Leukemia (intraperitoneal) in B6D2F1 (BDF1) mice
Conditions: endpoint: mean survival time, higher = longer survival
In short: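 Survival endpoint. Drug-treated group vs vehicle group, expressed as T divided by C. Tumor passaged by transplantation.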

[1] = dose: 100.0 mg/kg/injection, schedule: Q04DX003 (ip), vehicle: saline with Tween-80
[2] = dose: 200.0 mg/kg/injection, schedule: Q04DX003 (ip), vehicle: saline with Tween-80
[3] = dose: 400.0 mg/kg/injection, schedule: Q04DX003 (ip), vehicle: saline with Tween-80

Measured: T/C

C=CC(=O)N1CCN(C(=O)C=C)CC1 (tested in a mixture with another compound)
inactive: dose: 0.04 mg/kg/injection, schedule: Q04DX002 (ip), vehicle: saline 101 % of control | dose: 0.09 mg/kg/injection, schedule: Q04DX002 (ip), vehicle: saline 97 % of control | dose: 0.18 mg/kg/injection, schedule: Q04DX002 (ip), vehicle: saline 97 % of control and 100 % of control | dose: 0.75 mg/kg/injection, schedule: Q04DX002 (ip), vehicle: saline 109 % of control | dose: 1.5 mg/kg/injection, schedule: Q04DX002 (ip), vehicle: saline 103 % of control | dose: 3.12 mg/kg/injection, schedule: Q04DX002 (ip), vehicle: saline 106 % of control | dose: 6.25 mg/kg/injection, schedule: Q04DX002 (ip), vehicle: saline + alcohol 97 % of control | dose: 6.25 mg/kg/injection, schedule: Q04DX002 (ip), vehicle: saline 103 % of control | dose: 12.5 mg/kg/injection, schedule: Q04DX002 (ip), vehicle: saline + alcohol 101 % of control | dose: 12.5 mg/kg/injection, schedule: Q04DX002 (ip), vehicle: saline with Tween-80 94 % of control | dose: 12.5 mg/kg/injection, schedule: Q04DX002 (ip), vehicle: saline 103 % of control | dose: 25.0 mg/kg/injection, schedule: Q04DX002 (ip), vehicle: saline + alcohol 104 % of control and 89 % of control | dose: 25.0 mg/kg/injection, schedule: Q04DX002 (ip), vehicle: saline with Tween-80 109 % of control | dose: 50.0 mg/kg/injection, schedule: Q04DX002 (ip), vehicle: saline + alcohol 92 % of control | dose: 50.0 mg/kg/injection, schedule: Q04DX002 (ip), vehicle: saline with Tween-80 91 % of control | dose: 50.0 mg/kg/injection, schedule: Q04DX002 (ip), vehicle: saline 96 % of control and 105 % of control | dose: 100.0 mg/kg/injection, schedule: Q04DX002 (ip), vehicle: saline + alcohol 100 % of control | dose: 100.0 mg/kg/injection, schedule: Q04DX002 (ip), vehicle: saline 100 % of control and 97 % of control and 105 % of control | dose: 200.0 mg/kg/injection, schedule: Q04DX002 (ip), vehicle: saline 97 % of control and 90 % of control | dose: 400.0 mg/kg/injection, schedule: Q04DX002 (ip), vehicle: saline 90 % of control

Cc1cccc2nc3nc(Cl)c(Cl)nc3n12
inactive: dose: 75.0 mg/kg/injection, schedule: Q01DX001 (ip), vehicle: acetone 98 % of control | dose: 150.0 mg/kg/injection, schedule: Q01DX001 (ip), vehicle: acetone 101 % of control | dose: 300.0 mg/kg/injection, schedule: Q01DX001 (ip), vehicle: acetone 92 % of control

NS(=O)(=O)c1c([N+](=O)[O-])ncn1C1OC(COC(=O)c2ccccc2)C(OC(=O)c2ccccc2)C1OC(=O)c1ccccc1 (centres undefined)
inactive: dose: 100.0 mg/kg/injection, schedule: Q01DX005 (ip), vehicle: saline 93 % of control | dose: 200.0 mg/kg/injection, schedule: Q01DX005 (ip), vehicle: saline 95 % of control

CCCN(CCC)N=Nc1c(C(=O)OC)n[nH]c1C
inactive: dose: 50.0 mg/kg/injection, schedule: Q04DX003 (ip), vehicle: saline with Tween-80 103 % of control | [1] 104 % of control and 109 % of control | dose: 175.0 mg/kg/injection, schedule: Q01DX009 (ip), vehicle: saline 124 % of control | [2] 104 % of control and 109 % of control | dose: 400.0 mg/kg/injection, schedule: Q01DX009 (ip), vehicle: saline 96 % of control | [3] 102 % of control

Cc1ccc(Cl)cc1NC(=O)Nc1ccccc1O
inactive: dose: 100.0 mg/kg/injection, schedule: Q01DX001 (ip), vehicle: saline with Tween-80 95 % of control | dose: 100.0 mg/kg/injection, schedule: Q01DX009 (ip), vehicle: saline with Tween-80 94 % of control and 97 % of control | dose: 100.0 mg/kg/injection, schedule: Q04DX002 (ip), vehicle: saline with Tween-80 94 % of control and 95 % of control | [1] 106 % of control | dose: 200.0 mg/kg/injection, schedule: Q01DX001 (ip), vehicle: saline with Tween-80 95 % of control | dose: 200.0 mg/kg/injection, schedule: Q01DX009 (ip), vehicle: saline with Tween-80 94 % of control and 92 % of control | dose: 200.0 mg/kg/injection, schedule: Q04DX002 (ip), vehicle: saline with Tween-80 94 % of control and 106 % of control | [2] 103 % of control | dose: 400.0 mg/kg/injection, schedule: Q01DX001 (ip), vehicle: saline with Tween-80 93 % of control | dose: 400.0 mg/kg/injection, schedule: Q01DX009 (ip), vehicle: saline with Tween-80 109 % of control and 115 % of control | dose: 400.0 mg/kg/injection, schedule: Q04DX002 (ip), vehicle: saline with Tween-80 93 % of control and 91 % of control | [3] 94 % of control

CCCC(=O)c1c(O)cc(O)cc1O
inactive: dose: 100.0 mg/kg/injection, schedule: Q01DX001 (ip), vehicle: carboxymethylcellulose (CMC) 98 % of control | dose: 200.0 mg/kg/injection, schedule: Q01DX001 (ip), vehicle: carboxymethylcellulose (CMC) 96 % of control | dose: 400.0 mg/kg/injection, schedule: Q01DX001 (ip), vehicle: carboxymethylcellulose (CMC) 93 % of control

CCCC(=O)c1cc(O)c(O)cc1O
inactive: dose: 50.0 mg/kg/injection, schedule: Q01DX009 (ip), vehicle: saline with Tween-80 96 % of control | [1] 95 % of control | [2] 105 % of control

Source: PubChem BioAssay AID248 (DTP/NCI, 2004)
